Assay results: patent publication US20160367511A1, “EFFICACY OF DIETARY DHA-PHOSPHOLIPID FOR BRAIN DHA AND DPA ACCRETION IN NEONATES” (N.V. NUTRICIA, priority 2013, published 2016)

Settings: both, Yorkshire x Landrace cross sows bred with Hampshire boars, pig, in vivo, 6 days
Description: The TAG tracer (TAG-^13C-DHA) had ^13C-DHA in the sn-2 position with unlabeled 16:0 in the sn-1 and sn-3 positions. The tracer representative for PL was phosphatidylcholine (PC) with ^13C-DHA in the sn-2 position and unlabeled 16:0 in the sn-1 position (PC-^13C-DHA).
Sows (Yorkshire and Landrace cross) were bred with Hampshire boars. After birth, piglets were left to nurse with the sow for at least 48 hours. Twenty piglets, 2 to 4 days of age, were chosen for the study based on the following criteria: weight (about 2.0 kg), gender (10 males and 10 females), health (active and apparently normal, and not the smallest animal in the litter) and sow. Piglets were given a unique number/color combination identifier and then were transported to Large Animal Research and Teaching Unit (LARTU), Cornell University.
At the study site, piglets were housed in individual stainless steel cages and were placed on a single fully balanced commercially available young farm animal milk replacer formula immediately upon arrival.
On day 16 of life, 16 robust piglets were assigned to two dosing groups balanced with respect to gender, weight, and age but otherwise distributed randomly. Group PC were orally dosed with PC-^13C-DHA; Group TG were dosed with TG-^13C-DHA.
Doses were prepared by dissolving CHC13 solutions of PC-^13C-DHA or TAG-^13C-DHA in about 1 mL of refined olive oil and driving off the CHCl3 by gentle heating under flowing dry N2 over 4 hours. The resulting olive oils were carefully placed on the surface of a few mL of reconstituted piglet formula and sonicated until homogeneous. The resulting labeled formula was split into 1 to 2 mL aliquots gravimetrically and administered orally to piglets, followed by several washes of the vials containing the labeled formulas, at the beginning of a feed. Care was taken to insure all of the labeled formula and the washes, consisting of a total of up to 10 mL, were swallowed by the piglets. Piglets were then provided with their normal meal of 500 mL milk replacer which they routinely consume completely. Doses to piglets corresponded to about 20 mg ^13C-DHA delivered in PC and 86 mg of ^13C-DHA delivered in TAG.
Six days after the dose, and on a single day after 20 days of formula, all piglets were euthanized by exsanguination under anesthesia. Blood for fatty acid analysis was collected in tubes with EDTA and spun to prepare red blood cells. […] A piece was immediately used for preparation of synaptosomes, and the remaining grey matter was flash frozen for fatty acid analysis. Retina, heart, liver, biceps femoris muscle and kidney were also harvested, and all tissues were flash frozen and stored at −80° C. until prepared for analysis. […]

- 13C-DHA relative to 13C-DPA in grey matter: about 8 fold
- 13C-DHA relative to 13C-DPA in liver: 40 fold
- 13C-DHA relative to DPAn-3 in retina: 6.3 fold
- liver 13C-DHA relative to grey matter 13C-DHA: about 20 fold
Compound: CC/C=C\C/C=C\C/C=C\C/C=C\C/C=C\C/C=C\CCC(=O)O [^13C-DHA, docosahexaenoic acid]
